For series [1], the target named is T1, 5-hydroxytryptamine receptor 2B (Homo sapiens, UniProt P41595). The experiment in a line: Displacement of [3H]Mesulergine from human 5-HT2B receptor expressed in HEK293-EBNA cells by liquid scintillation counting. The format is cell-based.
For series [2], the system named is Mus musculus. The experiment in a line: Hypothermic effect in po dosed ddY mouse measured after 60 mins of treatment. The format is ADME, organism-based. The settings on record: in vivo, 1 h.
Series [3] concerns the target T2, 5-hydroxytryptamine receptor 7 (Homo sapiens, UniProt P34969). The experiment in a line: Displacement of [3H]HT from human 5-HT7 receptor expressed in CHO cells by liquid scintillation counting. The format is cell-based.
Series [4] has as its system Mus musculus. In words: Reversal of 5-carboxamidotryptamine-incued hypothermia in po dosed ddY mouse measured after 60 mins of treatment. It is filed as functional. The settings on record: 1 h, read-out: MED.
In series [5] the test system is Cavia porcellus. The experiment in a line: Suppression of 5-HT-induced dural plasma protein extravasation in Hartley guinea pig at 30 mg/kg, po after 16 hrs. It is filed as functional, organism-based. Details: dose 30 mg/kg.
Series [6] addresses T2, 5-hydroxytryptamine receptor 7. In words: Inhibition of human 5-HT7 receptor expressed in CHO cells assessed as cAMP production by EIA system. It is filed as functional, cell-based.
Series [7] concerns Cavia porcellus. In words: Suppression of 5-HT-induced dural plasma protein extravasation in po dosed Hartley guinea pig after 16 hrs. The format is functional, organism-based.
Series [8] addresses 5-hydroxytryptamine receptor 2A (Homo sapiens, UniProt P28223). In words: Binding affinity to 5-HT2A receptor (unknown origin).
Series [9] deals with T3, Adrenergic receptor alpha-1 (Homo sapiens, UniProt P35348+P25100+P35368).
T3 sequence (P35348 whole entry): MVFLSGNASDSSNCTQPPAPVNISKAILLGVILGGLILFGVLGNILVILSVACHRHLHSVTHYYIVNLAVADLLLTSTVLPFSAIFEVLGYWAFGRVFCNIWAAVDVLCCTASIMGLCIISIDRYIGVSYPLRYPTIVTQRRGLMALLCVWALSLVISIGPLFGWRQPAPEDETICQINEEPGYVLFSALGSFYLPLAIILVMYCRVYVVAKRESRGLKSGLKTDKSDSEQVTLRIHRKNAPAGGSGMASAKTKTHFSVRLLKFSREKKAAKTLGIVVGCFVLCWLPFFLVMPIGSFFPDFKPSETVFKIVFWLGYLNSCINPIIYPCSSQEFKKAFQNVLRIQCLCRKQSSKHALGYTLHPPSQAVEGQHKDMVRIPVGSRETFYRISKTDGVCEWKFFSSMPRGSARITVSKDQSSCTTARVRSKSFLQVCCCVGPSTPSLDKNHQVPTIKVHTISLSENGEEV
T3 sequence (P25100 whole entry): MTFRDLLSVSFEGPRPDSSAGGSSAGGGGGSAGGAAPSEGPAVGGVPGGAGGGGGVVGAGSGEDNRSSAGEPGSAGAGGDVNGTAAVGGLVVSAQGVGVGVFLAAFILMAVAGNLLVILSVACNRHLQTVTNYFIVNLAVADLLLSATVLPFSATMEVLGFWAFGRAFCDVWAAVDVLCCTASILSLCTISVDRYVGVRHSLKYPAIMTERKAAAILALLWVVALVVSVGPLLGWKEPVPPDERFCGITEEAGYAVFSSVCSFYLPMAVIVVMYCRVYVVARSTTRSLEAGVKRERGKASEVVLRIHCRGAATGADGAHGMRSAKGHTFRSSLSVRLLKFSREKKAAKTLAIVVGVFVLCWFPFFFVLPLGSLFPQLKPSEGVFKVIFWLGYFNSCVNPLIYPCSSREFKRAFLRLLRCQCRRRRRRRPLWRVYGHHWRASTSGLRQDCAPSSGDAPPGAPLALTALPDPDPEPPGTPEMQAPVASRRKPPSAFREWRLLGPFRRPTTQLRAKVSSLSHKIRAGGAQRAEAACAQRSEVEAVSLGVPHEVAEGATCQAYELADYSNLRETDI
T3 sequence (P35368 whole entry): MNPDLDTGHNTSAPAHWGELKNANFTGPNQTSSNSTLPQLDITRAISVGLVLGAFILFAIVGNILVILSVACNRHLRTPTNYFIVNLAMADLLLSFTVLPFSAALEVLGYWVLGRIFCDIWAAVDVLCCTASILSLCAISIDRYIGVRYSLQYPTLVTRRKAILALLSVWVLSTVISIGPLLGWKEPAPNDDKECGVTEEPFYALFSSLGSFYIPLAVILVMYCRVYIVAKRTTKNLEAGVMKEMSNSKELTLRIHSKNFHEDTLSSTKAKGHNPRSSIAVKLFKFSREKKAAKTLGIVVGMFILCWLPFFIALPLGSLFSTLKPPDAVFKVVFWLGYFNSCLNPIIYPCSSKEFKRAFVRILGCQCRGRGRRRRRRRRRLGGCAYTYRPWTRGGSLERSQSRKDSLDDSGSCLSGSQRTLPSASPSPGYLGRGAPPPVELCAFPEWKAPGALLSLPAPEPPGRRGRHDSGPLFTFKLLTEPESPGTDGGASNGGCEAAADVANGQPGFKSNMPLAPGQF
The experiment in a line: Binding affinity to alpha-1 adrenergic receptor (unknown origin).

Series [10] deals with T1, 5-hydroxytryptamine receptor 2B. In words: Inhibition of human 5-HT2B receptor expressed in HEK293-EBNA cells assessed as [3H]PI metabolism by liquid scintillation counting. It is filed as cell-based.
For series [11], the target named is T4, Muscarinic acetylcholine receptor M1 (Homo sapiens, UniProt P11229).
T4 sequence (P11229 whole entry): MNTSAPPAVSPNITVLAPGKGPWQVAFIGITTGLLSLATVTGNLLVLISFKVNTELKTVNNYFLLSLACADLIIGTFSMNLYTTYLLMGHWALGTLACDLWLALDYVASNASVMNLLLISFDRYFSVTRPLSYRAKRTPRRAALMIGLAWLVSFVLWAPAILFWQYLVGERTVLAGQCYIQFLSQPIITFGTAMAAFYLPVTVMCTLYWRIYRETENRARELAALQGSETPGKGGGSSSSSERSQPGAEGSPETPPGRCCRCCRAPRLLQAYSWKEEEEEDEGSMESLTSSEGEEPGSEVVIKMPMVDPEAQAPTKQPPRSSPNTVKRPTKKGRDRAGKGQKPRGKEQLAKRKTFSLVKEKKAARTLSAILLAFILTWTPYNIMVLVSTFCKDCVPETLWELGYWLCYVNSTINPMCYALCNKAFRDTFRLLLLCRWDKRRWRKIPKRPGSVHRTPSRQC
In words: Binding affinity to muscarinic M1 receptor (unknown origin).

Series [12] concerns the target D(2) dopamine receptor (Homo sapiens, UniProt P14416). In words: Binding affinity to dopamine D2 receptor (unknown origin).
Series [13] deals with T5, 5-hydroxytryptamine receptor 2C (Homo sapiens, UniProt P28335).
T5 sequence (P28335 whole entry): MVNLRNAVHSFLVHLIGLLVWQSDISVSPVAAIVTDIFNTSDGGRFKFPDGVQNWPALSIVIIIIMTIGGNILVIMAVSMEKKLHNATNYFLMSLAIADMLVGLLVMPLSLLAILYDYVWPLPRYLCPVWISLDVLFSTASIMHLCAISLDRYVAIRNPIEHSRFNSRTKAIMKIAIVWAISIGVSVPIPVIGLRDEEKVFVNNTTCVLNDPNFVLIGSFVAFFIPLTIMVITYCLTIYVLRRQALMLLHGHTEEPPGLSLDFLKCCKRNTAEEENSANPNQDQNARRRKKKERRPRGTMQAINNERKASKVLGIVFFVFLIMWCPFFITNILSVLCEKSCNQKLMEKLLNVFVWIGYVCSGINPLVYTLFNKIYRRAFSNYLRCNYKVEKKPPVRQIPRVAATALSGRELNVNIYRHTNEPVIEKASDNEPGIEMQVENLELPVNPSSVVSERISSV
The experiment in a line: Binding affinity to 5-HT2C receptor (unknown origin).

The source made the active and inactive calls. No cut-off for these calls is given here.

T2 sequence (P34969 whole entry): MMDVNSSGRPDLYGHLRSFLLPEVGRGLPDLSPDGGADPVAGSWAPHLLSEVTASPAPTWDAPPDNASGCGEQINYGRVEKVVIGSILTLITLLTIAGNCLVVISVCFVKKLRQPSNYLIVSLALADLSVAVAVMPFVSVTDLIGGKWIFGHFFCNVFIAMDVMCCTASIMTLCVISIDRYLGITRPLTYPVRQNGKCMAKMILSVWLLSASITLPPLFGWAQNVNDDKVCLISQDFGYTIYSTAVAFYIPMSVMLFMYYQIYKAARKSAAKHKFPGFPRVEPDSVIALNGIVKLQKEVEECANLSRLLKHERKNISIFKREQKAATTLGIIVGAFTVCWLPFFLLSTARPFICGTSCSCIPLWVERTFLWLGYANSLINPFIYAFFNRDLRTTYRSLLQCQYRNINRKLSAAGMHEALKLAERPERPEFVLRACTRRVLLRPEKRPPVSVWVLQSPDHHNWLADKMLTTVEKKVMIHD
T1 sequence (P41595 whole entry): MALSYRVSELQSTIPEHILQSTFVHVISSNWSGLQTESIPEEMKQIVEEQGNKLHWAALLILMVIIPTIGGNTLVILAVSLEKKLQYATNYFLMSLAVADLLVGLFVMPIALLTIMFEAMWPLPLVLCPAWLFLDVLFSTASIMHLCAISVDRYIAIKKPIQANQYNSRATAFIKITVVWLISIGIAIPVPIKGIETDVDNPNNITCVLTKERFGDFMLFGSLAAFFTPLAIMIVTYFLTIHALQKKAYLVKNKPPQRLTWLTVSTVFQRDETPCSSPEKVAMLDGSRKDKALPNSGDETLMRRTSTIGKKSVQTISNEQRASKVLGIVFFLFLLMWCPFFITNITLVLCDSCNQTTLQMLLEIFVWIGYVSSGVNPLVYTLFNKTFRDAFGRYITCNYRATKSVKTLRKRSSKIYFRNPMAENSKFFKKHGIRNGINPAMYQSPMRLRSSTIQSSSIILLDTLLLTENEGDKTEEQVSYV
Sequence of D(2) dopamine receptor (P14416 whole entry): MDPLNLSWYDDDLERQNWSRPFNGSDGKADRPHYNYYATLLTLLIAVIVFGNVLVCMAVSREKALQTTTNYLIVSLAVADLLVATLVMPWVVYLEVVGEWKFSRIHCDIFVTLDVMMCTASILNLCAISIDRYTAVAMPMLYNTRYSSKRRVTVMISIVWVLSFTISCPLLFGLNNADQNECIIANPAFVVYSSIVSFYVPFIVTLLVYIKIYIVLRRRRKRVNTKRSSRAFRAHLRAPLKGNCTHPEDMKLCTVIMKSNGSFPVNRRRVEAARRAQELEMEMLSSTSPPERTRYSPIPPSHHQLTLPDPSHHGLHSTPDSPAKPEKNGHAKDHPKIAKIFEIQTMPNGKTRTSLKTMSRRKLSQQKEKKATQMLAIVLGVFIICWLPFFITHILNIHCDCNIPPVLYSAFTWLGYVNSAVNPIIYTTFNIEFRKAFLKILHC
Sequence of 5-hydroxytryptamine receptor 2A (P28223 whole entry): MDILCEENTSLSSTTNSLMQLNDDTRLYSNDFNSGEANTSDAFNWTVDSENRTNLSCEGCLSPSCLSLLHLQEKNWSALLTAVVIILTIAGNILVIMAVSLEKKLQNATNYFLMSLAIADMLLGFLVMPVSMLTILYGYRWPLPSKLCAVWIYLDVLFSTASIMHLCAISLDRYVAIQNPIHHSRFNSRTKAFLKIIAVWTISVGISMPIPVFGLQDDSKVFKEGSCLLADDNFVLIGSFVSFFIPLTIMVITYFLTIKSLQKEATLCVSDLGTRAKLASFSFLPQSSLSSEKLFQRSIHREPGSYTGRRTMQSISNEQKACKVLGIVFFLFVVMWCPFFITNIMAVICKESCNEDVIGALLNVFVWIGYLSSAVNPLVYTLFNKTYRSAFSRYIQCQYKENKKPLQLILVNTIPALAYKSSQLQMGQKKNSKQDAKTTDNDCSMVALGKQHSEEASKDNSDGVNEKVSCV

On to `CC1c2ccccc2-c2ccc(C(=O)N=C(N)N)cc21.Cl` (stereo not given), for which the figures for the Ki in series [1] and in series [3] were 0.0044 µM and 0.0041 µM, respectively. The Activity entry in [2] is on record as “Toxic”.
For `NC(N)=NC(=O)c1ccc2c(c1)C(O)c1cccc(CO)c1-2` (stereo not given), the figures for the Ki in series [1] and in series [3] were 0.0066 µM and 0.041 µM, respectively.
As for `CCc1cccc2c1-c1ccc(C(=O)N=C(N)N)cc1C2O` (stereo not given), the minimal effective dose in [4] is above 30 mg/kg. Further, the Ki in [1] came out at 0.0016 µM; in series [3] it was 0.0041 µM.
With `NC(N)=NC(=O)c1ccc2c(c1)C(N)c1ccccc1-2` (stereo not given), the Ki came out at 0.018 µM in [1] and 0.043 µM in series [3].
On to `NC(N)=NC(=O)c1ccc2c(c1)C(O)c1cc(Cl)ccc1-2` (stereo not given), for which the Ki in series [1] was 0.0017 µM; in series [3], above 1 µM.
Consider `N=C(N)NC(=O)c1ccc2c(c1)C(F)c1ccccc1-2` (stereo not given), for which the values for the Ki in series [1] and in [3] were 0.0009 µM and 0.057 µM, respectively.
On the same counts, the results for `COCc1cccc2c1-c1ccc(C(=O)N=C(N)N)cc1C2O` (stereo not given) are 0.0063 µM and 0.05 µM.
On the same counts, the results for `CC(=O)NC1c2ccccc2-c2ccc(C(=O)N=C(N)N)cc21` (stereo not given) are 0.034 µM and 0.18 µM.
For `NC(N)=NC(=O)c1ccc2c(c1)C(O)c1ccccc1-2` (stereo not given), the minimal effective dose in [4] was above 30 mg/kg.
Regarding `Cc1cccc2c1C(O)c1cc(C(=O)N=C(N)N)ccc1-2` (stereo not given), the Ki in series [1] is 0.00067 µM; in series [3], 0.087 µM.
Consider `CCc1cccc2c1-c1ccc(C(=O)N=C(N)N)cc1C2(C)O.Cl` (stereo not given), for which, in series [4], the minimal effective dose was above 30 mg/kg. Besides, the values for the Ki in series [1] and in [3] were 0.00071 µM and 0.0023 µM, respectively.
With `NC(N)=NC(=O)c1ccc2c(c1)C(O)c1cccc(Cl)c1-2` (stereo not given), the Ki in [1] came to 0.0015 µM; in series [3], 0.041 µM.
On the same counts, the results for `NC(N)=NC(=O)c1ccc2c(c1)C(O)c1ccc(Cl)cc1-2` (stereo not given) are 0.011 µM and 0.16 µM.
`CC1(O)c2ccccc2-c2ccc(C(=O)N=C(N)N)cc21.Cl` (stereo not given): the inhibition entry in series [5] is “Active”. The minimal effective dose in series [4] came to 30 mg/kg. In addition, the half-inhibitory concentration (IC50) in series [6] was found to be 0.059 µM; in series [10] it was 0.052 µM. The inhibition result in series [7] was “Dose-dependent effect”. In addition, the Ki in [1] is 0.0043 µM; in series [8], above 1 µM; in series [9], above 1 µM; in series [11], above 1 µM; in series [3] it was 0.0043 µM; in [12], above 1 µM. In series [13], this compound registered a Ki of 0.39 µM.
For `Cc1cccc2c1-c1ccc(C(=O)N=C(N)N)cc1C2(C)O.Cl` (stereo not given), the minimal effective dose in series [4] is above 30 mg/kg. Further, the Ki in series [1] turned out to be 0.0011 µM; in series [3], 0.004 µM.
On to `Cc1cccc2c1-c1ccc(C(=O)N=C(N)N)cc1C2O.Cl` (stereo not given), for which the Ki in series [1] came out at 0.00081 µM; in [3] it was 0.014 µM. Besides, in [2], the Activity result is “Toxic”.
As to `NC(N)=NC(=O)c1ccc2c(c1)C(O)c1c(Cl)cccc1-2` (stereo not given), the inhibition constant Ki in [1] is 0.00011 µM; in series [3], 0.033 µM.
Regarding `NC(N)=NC(=O)c1ccc2c(c1)C(O)c1cccc(F)c1-2` (stereo not given), the Ki in series [1] was 0.00091 µM; in series [3], 0.029 µM.

Values taken from ChEMBL document CHEMBL3352264, “Synthesis and structure-activity relationships of new carbonyl guanidine derivatives as novel dual 5-HT₂B and 5-HT₇ receptor antagonists. Part 2” (Bioorg Med Chem, 2014).
